Measurements as given in patent US11098040B2, “Compounds and methods of use” (Ferro Therapeutics, Inc., priority 2018, dated 2021).
Where two headings read alike, the source gives them in different places.

Experiments:
[1] = PK profile, IV plasma concentration and PK parameters; assay type: in vivo; details: Balb/C nude, mouse
Protocol: The PK profiles of compounds 148, 149, 150, 156 and 169 are shown below. Compound 156 was formulated in 30% Kolliphor EL (Cremophor EL) in water and compounds 148, 149, 150 and 169 were formulated in 30% Kolliphore EL with 1% poloxamar 407 in water. All compounds were dosed at 5 mg/kg. Blood samples were collected at various time points and analyzed using the method described above.

[2] = test system: 786-O; experiment: Cell proliferation (Alamar Blue) assay, 786-O renal cell carcinoma, with/without ferrostatin; assay type: cell-based; details: Homo sapiens, 786-0, Cell Line 786-O; read-out: IC50
Method in brief: (§1)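 Cells seeded at 5000/well, 16-24 h, then exposed 24 h at 37° C to compound, 10-0.0005 μM in 3-fold dilutions, 1% DMSO final. Alamar Blue fluorescence (ex 540/em 590 nm) read after 1.5 h; IC50 from variable-slope sigmoidal fit.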

[3] = test system: SJSA-1; experiment: Cell proliferation (Alamar Blue) assay, SJSA-1 osteosarcoma, with/without ferrostatin; assay type: cell-based, human; details: Homo sapiens, SJSA-1, Cell Line SJSA-1; read-out: IC50
Method in brief: as §1

[4] = test system: A549; experiment: Cell viability assay, A549 cells; assay type: cell-based; details: Homo sapiens, A549, Cell Line A549; read-out: IC50
Protocol: Example 5: Inducer Compound Effect on Growth of A549 and KP4 Cells
Cell viability assay was performed to assess the potency of the compounds in cancer cell line KP4 (pancreatic ductal adenocarcinoma). Cells at a density of 1,000-10,000 cells/well were seeded in 96-well plates and incubated at 37° C. overnight. A series of 9 different concentrations of compound stocks (500×) were created by 3-fold serial dilution in DMSO. These compounds were further diluted in culture media and then added to cells so that the final DMSO concentration was equal to 0.25% or less. After 96 hours of incubation, 50 μL of CellTiter Glo reagent (Promega) was added to each well and luminescence was measured after 10 minutes using EnVision (PerkinElmer). All compounds were tested initially from 30 μM as the top concentration in duplicates (range of 4.6 nM-30 μM). […] Luminescence from cells treated with DMSO alone was set as Max and % of inhibition was calculated as follows: Inhibition %=(Max-Sample value)/Max*100. Data was analyzed using XL-fit software (ID Business Solutions Ltd.). IC50, relative IC50, or % of top inhibition was calculated. […]

[5] = test system: KP4; experiment: Cell viability assay (CellTiter Glo), pancreatic ductal adenocarcinoma KP4; assay type: cell-based, human; details: Homo sapiens
Method in brief: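 KP4 cells seeded at 1,000–10,000 per well, treated 96 h with 9-point 3-fold dilutions from 30 μM top (4.6 nM–30 μM, duplicates; ≤0.25% DMSO). Viability by CellTiter Glo luminescence; % inhibition relative to DMSO-only wells, giving IC50, relative IC50 or % top inhibition.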

[6] = test system: MiaPaCa-2; experiment: Cell viability assay (CellTiter Glo), pancreatic carcinoma MiaPaCa-2; assay type: cell-based; details: Homo sapiens
Protocol: (§2) Cell viability assay was performed to assess the potency of the compounds in human cancer cell lines KP4 (pancreatic ductal adenocarcinoma), MiaPaCa-2 (pancreatic carcinoma), AsPC-1 (pancreatic adenocarcinoma, ascites), 143B (osteosarcoma), and SJSA-1 (osteosarcoma). Selected compounds were also assayed in a human breast epithelial cell line MCF-10A, a nontumorigenic cell line as a control to assess differential activity. Cells at a density of 500-5,000 cells/well were seeded in 96-well plates and incubated at 37° C. overnight. A series of 9 different concentrations of compound stocks (500×) were created by 3-fold serial dilution in DMSO. These compounds were further diluted in culture media and then added to cells so that the final DMSO concentration was equal to 0.25% or less. After 96 hours of incubation, 50 μL of CellTiter Glo reagent (Promega) was added to each well and luminescence was measured after 10 minutes using EnVision (PerkinElmer). Compounds titrated from top concentration of up to 30 μM. The select compounds were tested initially from 30 μM as the top concentration in duplicates (range of 4.6 nM-30 μM). […] Luminescence from cells treated with DMSO alone was set as Max and % of inhibition was calculated as follows: Inhibition %=(Max-Sample value)/Max*100. Data was analyzed using XL-fit software (ID Business Solutions Ltd.). IC50, relative IC50, or % of top inhibition was calculated.
The results of the assay in the pancreatic cell lines are given in Table 15a for PANC1, Table 15b for MiaPaCa-2, and Table 15c for AsPC-1.

[7] = Whole blood stability, human; assay type: in vitro ADME
Excerpt: (§3) The results of the assay on stability in blood and IC50 values for pancreatic cancer cell line KP4 are given below in Table 24.

[8] = Whole blood stability, mouse; assay type: in vitro ADME
Excerpt: as §3

[9] = test system: MCF-10A; experiment: Cell viability assay (CellTiter Glo), non-tumorigenic breast epithelial cell line MCF-10A; assay type: cell-based; details: Homo sapiens, 96 hours
Protocol: as §2
Paclitaxel was used as the positive control for cytotoxicity.

[10] = iv, 5 mg/kg, 30% Kolliphore EL with 1% poloxamar 407 in water
[11] = iv, 5 mg/kg, 30% Kolliphor EL in water (Table 10b)
[12] = KP-4, Cell Line KP4, read-out: IC50
[13] = MIA PaCa-2, pancreatic carcinoma, 96 hours, CellTiter Glo, read-out: IC50 MiaPaCa-2
[14] = Cell Line Mia PaCa-2, read-out: IC50

C[C@H]1Cc2c([nH]c3ccccc23)[C@H](c2ccc(NC34CC5CC(CC(C5)C3)C4)cc2)N1C(=O)CCl [Compound 150, 1-((1S,3S)-1-(4-(((3R,5R,7R)-adamantan-1-yl)amino)phenyl)-3-methyl-1,3,4,9-tetrahydro-2H-pyrido[3,4-b]indol-2-yl)-2-chloroethan-1-one]
C0 [1, 10]: 3400 ng/mL | Cmax [1, 10]: 2260 ng/mL | clearance [1, 10]: 113 mL/min/kg | AUC(0-t) ([1]; iv, 5 mg/kg, 30% Kolliphore EL with 1% poloxamar 407 in water, read-out: AUC0-t): 735 ng·h/mL | AUC(0-inf) ([1]; iv, 5 mg/kg, 30% Kolliphore EL with 1% poloxamar 407 in water, read-out: AUC0-∞): 740 ng·h/mL | Vd ([1]; iv, 5 mg/kg, 30% Kolliphore EL with 1% poloxamar 407 in water, read-out: Vd): 3.25 L/kg | Vd ([1]; iv, 5 mg/kg, 30% Kolliphore EL with 1% poloxamar 407 in water, read-out: Vss): 1.64 L/kg | half-life ([1]; iv, 5 mg/kg, 30% Kolliphore EL with 1% poloxamar 407 in water, time points considered 0.25-2 h): 19.8 min | IC50 [2]: 9 nM | IC50 [3]: 8 nM

C#CC(=O)N1[C@@H](CCCC)Cc2c([nH]c3c(F)cc(F)cc23)[C@@H]1c1ccc(F)cc1 [Compound 156]
concentration at 5 min ([1]; 5 mg/kg IV, BID q12, post 2nd dose, 5 min, 30% Kolliphor EL in water): 18500 ng/mL | concentration at 0.25 h ([1]; 5 mg/kg IV, BID q12, post 2nd dose, 0.25 h, 30% Kolliphor EL in water): 4640 ng/mL | concentration at 0.5 h ([1]; 5 mg/kg IV, BID q12, post 2nd dose, 0.5 h, 30% Kolliphor EL in water): 984 ng/mL | concentration at 1 h ([1]; 5 mg/kg IV, BID q12, post 2nd dose, 1 h, 30% Kolliphor EL in water): 302 ng/mL | concentration at 2 h ([1]; 5 mg/kg IV, BID q12, post 2nd dose, 2 h, 30% Kolliphor EL in water): 105 ng/mL | concentration at 4 h ([1]; 5 mg/kg IV, BID q12, post 2nd dose, 4 h, 30% Kolliphor EL in water): 45.9 ng/mL | concentration at 8 h ([1]; 5 mg/kg IV, BID q12, post 2nd dose, 8 h, 30% Kolliphor EL in water): 24.4 ng/mL | C0 [1, 11]: 38200 ng/mL | MRT inf [1, 11]: 33.2 min | clearance [1, 11]: 14.5 mL/min/kg | half-life [1, 11]: 180 min | AUC(0-inf) ([1]; iv, 5 mg/kg, 30% Kolliphor EL in water (Table 10b), read-out: AUCInf): 5920 ng·h/mL | AUC(0-t) ([1]; iv, 5 mg/kg, 30% Kolliphor EL in water (Table 10b), read-out: AUClast): 5810 ng·h/mL | Vd ([1]; iv, 5 mg/kg, 30% Kolliphor EL in water (Table 10b), read-out: Vss): 0.48 L/kg | Vd ([1]; iv, 5 mg/kg, 30% Kolliphor EL in water (Table 10b), read-out: Vz): 3.72 L/kg | IC50 [2]: 75.1 nM | IC50 [4]: 4300 nM | IC50 [3]: 42.2 nM

COC(=O)[C@H]1Cc2c([nH]c3ccccc23)[C@H](c2ccc(C(=O)OC(C)(C)C)cc2)N1C(=O)C(Cl)Cl [Compound 263]
IC50 [5, 12]: 10.4 µM | IC50 [6, 13]: 5570 nM | IC50 [6, 14]: 5570 nM | IC50 [4]: 6220 nM

COC(=O)c1ccc([C@H]2c3[nH]c4ccccc4c3C[C@H](C(=O)OC)N2C(=O)/C=C/CN(C)C)cc1 [Compound 273]
IC50 [5, 12]: 1.71 µM | IC50 [6, 14]: 10 nM | IC50 [4]: 3230 nM

COC(=O)[C@H]1Cc2c([nH]c3ccccc23)[C@H](c2ccc(C(=O)NCCN)cc2)N1C(=O)CCl [Example 15]
IC50 [6, 13]: 1320 nM

COC(=O)[C@H]1Cc2c([nH]c3ccccc23)[C@@H](c2ccc(S(=O)(=O)N(C)C)cc2)N1C(=O)CCl [Example 23a]
IC50 [6, 13]: 3150 nM

COC(=O)[C@H]1Cc2c([nH]c3ccccc23)[C@H](c2ccc(C(=O)OC(C)(C)C)cc2)N1C(=O)/C=C/CCl [Example 25]
IC50 [6, 13]: 858 nM

COC(=O)[C@H]1Cc2c([nH]c3ccccc23)[C@@H](c2ccc(C(=O)NCCN3CCOCC3)cc2)N1C(=O)CCl [Example 27a]
IC50 ([5]; KP-4, 96 h, pancreatic cancer cell line KP4, 96 hours, CellTiter Glo, read-out: IC50 μM KP4): 0.1 to 0.5 µM | IC50 [6, 13]: 3000 nM | Whole Blood Stability % Remaining at 37° C. Human ([7]; 0 min): 100.0% | Whole Blood Stability % Remaining at 37° C. Human ([7]; 30 min): 54.1% | Whole Blood Stability % Remaining at 37° C. Human ([7]; 60 min): 40.9% | Whole Blood Stability % Remaining at 37° C. Mouse ([8]; 0 min): 100.0% | Whole Blood Stability % Remaining at 37° C. Mouse ([8]; 30 min): 92.5% | Whole Blood Stability % Remaining at 37° C. Mouse ([8]; 60 min): 81.1%

CN(C)C(=O)c1ccc([C@H]2c3[nH]c4ccccc4c3C[C@H](C(=O)N(C)C)N2C(=O)CCl)cc1 [Example 38]
IC50 [6, 13]: 3630 nM | IC50 [9]: 19600 nM

COC(=O)C1CCC([C@H]2c3[nH]c4ccccc4c3C[C@H](C(=O)N(C)C)N2C(=O)CCl)CC1 (stereo partly shown) [Example 41]
IC50 [6, 13]: 40 nM | IC50 [9]: 40 nM

CN(C)C(=O)[C@H]1Cc2c([nH]c3ccccc23)[C@H](c2ccc(C(=O)NC[Si](C)(C)C)cc2)N1C(=O)CCl [Example 66]
IC50 [6, 13]: 159 nM

CN(C)C(=O)[C@H]1Cc2c([nH]c3ccccc23)[C@@H](c2ccc([Si](C)(C)C)cc2)N1C(=O)CCl [Example 67a]
IC50 [6, 13]: 1360 nM

COC(=O)[C@H]1Cc2c([nH]c3ccccc23)[C@H](c2ccc(C(=O)OCC3(C)CC3)cc2)N1C(=O)CCl [Example 84]
IC50 [9]: 480 nM

COC(=O)[C@H]1Cc2c([nH]c3ccccc23)[C@H](c2ccc(C(=O)OCC3CCCCC3)cc2)N1C(=O)CCl [Example 89]
IC50 [9]: 420 nM

COC(=O)[C@H]1Cc2c([nH]c3ccccc23)[C@H](c2ccc(O)cc2)N1C(=O)CCl [Example 265]
IC50 [5, 12]: 0.16 µM | IC50 [6, 13]: 246 nM | IC50 [6, 14]: 260 nM

CC(=O)O[C@H]1C(=O)[C@@]2(C)[C@H]([C@H](OC(=O)c3ccccc3)[C@]3(O)C[C@H](OC(=O)[C@H](O)[C@@H](NC(=O)c4ccccc4)c4ccccc4)C(C)=C1C3(C)C)[C@]1(OC(C)=O)CO[C@@H]1C[C@@H]2O [paclitaxel, Paclitaxel, reference compound]
IC50 [9]: 1 nM
